Laboratory results published in patent publication US20100047844A1, “DIAGNOSTIC MARKER FOR FABRY DISEASE” (Academisch Ziekenhuis bij de Universiteit van Amsterdam, priority 2006, published 2010).
Entries after “also recorded” stand apart in the source; their conditions may differ.

Tests used:
[1] = Partitioning of lyso-CTH in extraction from plasma samples; format: physicochemical
Method: An optimal extraction procedure for lyso-CTH from plasma samples was established. A double extraction was carried out, first a Bligh and Dyer extraction followed by butanol extraction.

[2] = molecular target: T1, alpha-galactosidase B (Homo sapiens, UniProt P17050); test: Inhibition of alpha-galactosidase B by lyso-CTH; format: biochemical
T1 sequence (P17050 18-411): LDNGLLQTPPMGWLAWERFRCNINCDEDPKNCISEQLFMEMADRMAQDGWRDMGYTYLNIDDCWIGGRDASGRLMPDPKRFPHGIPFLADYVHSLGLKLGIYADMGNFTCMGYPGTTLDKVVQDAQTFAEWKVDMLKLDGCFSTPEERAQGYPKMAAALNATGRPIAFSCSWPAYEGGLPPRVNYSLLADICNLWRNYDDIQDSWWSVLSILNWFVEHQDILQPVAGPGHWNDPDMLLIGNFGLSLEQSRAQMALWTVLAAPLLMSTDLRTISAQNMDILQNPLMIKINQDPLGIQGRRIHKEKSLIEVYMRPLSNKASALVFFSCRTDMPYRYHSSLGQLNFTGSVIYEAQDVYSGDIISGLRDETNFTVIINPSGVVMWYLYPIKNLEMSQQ

[3] = molecular target: T2, alpha-galactosidase A (Homo sapiens, UniProt P06280); test: Inhibition of alpha-galactosidase A by lyso-CTH; format: biochemical
T2 sequence (P06280 32-429): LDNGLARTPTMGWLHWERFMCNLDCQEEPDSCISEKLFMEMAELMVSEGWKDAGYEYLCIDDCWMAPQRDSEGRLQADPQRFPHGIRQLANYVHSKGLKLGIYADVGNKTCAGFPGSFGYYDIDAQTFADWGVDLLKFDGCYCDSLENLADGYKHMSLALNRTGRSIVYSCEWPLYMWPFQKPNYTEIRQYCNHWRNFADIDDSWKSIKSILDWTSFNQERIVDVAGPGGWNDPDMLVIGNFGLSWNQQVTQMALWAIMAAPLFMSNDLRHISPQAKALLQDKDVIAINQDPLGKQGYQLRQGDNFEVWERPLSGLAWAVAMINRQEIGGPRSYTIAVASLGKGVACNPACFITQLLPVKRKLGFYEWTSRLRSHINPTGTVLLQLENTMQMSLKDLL

[4] = test system: SMC-41 cell line; test: In vitro toxicity: 3H thymidine incorporation and proliferation in SMC-41 cell line; format: cell-based; settings: lyso-CTH 0.065-0.65 μM, as found in plasma of Fabry patients
Method: The toxic effect of lyso-CTH was determined in vitro in SMC-41 cell line. ^3H thymidine incorporation (per 24 h) was determined as a function of lyso-CTH concentration.

CCCCCCCCCCCCC/C=C/[C@@H](O)[C@@H](N)CO[C@@H]1O[C@H](CO)[C@@H](O[C@@H]2O[C@H](CO)[C@H](O[C@H]3O[C@H](CO)[C@H](O)[C@H](O)[C@H]3O)[C@H](O)[C@H]2O)[C@H](O)[C@H]1O [lyso-CTH, lyso-ceramide trihexosamide]
Partitioning of lyso-CTH (% of total), lower phase ([1]; Bligh and Dyer extraction): 10 % of total | Partitioning of lyso-CTH (% of total), upper phase ([1]; Bligh and Dyer extraction): 90 % of total | Partitioning of lyso-CTH (% of total), lower phase ([1]; butanol/water extraction): 2 % of total | Partitioning of lyso-CTH (% of total), upper phase ([1]; butanol/water extraction): 99 % of total | inhibition of alpha-galactosidase B [2]: potent inhibitor; also recorded: inhibits | inhibition of alpha-galactosidase A [3]: potent inhibitor; also recorded: inhibits | 3H thymidine incorporation (per 24 h) [4]: increased isotope incorporation | smooth muscle cell proliferation [4]: promote in vitro smooth muscle cell proliferation; also recorded: increased proliferation
